Results on two compounds are retold here after ChEMBL document CHEMBL1159345, “Eudistomins W and X, two new beta-carbolines from the micronesian tunicate Eudistoma sp” (2003).

Type in all cases: functional
What all share (conditions): read-out: IZ

Assay [1] concerns Candida albicans. Kind of assay: Antimicrobial activity against Candida albicans at 10 ug/disk by agar diffusion assay. Background: A growth-free zone around the sample is the usual read-out of agar diffusion tests.
Assay [2] relates to Bacillus subtilis. Kind of assay: Antimicrobial activity against Bacillus subtilis at 10 ug/disk by agar diffusion assay.
The subject of assay [3] is Staphylococcus aureus. The experiment in a line: Antimicrobial activity against Staphylococcus aureus at 5 ug/disk by agar diffusion assay.
For assay [4], the system named is Escherichia coli. The experiment in a line: Antimicrobial activity against Escherichia coli at 5 ug/disk by agar diffusion assay.
Assay [5] concerns Staphylococcus aureus. Kind of assay: Antimicrobial activity against Staphylococcus aureus at 10 ug/disk by agar diffusion assay.
In assay [6] the test system is Bacillus subtilis. Kind of assay: Antimicrobial activity against Bacillus subtilis at 5 ug/disk by agar diffusion assay.
Assay [7] has as its system Candida albicans. Kind of assay: Antimicrobial activity against Candida albicans at 5 ug/disk by agar diffusion assay.
In assay [8] the test system is Escherichia coli. The experiment in a line: Antimicrobial activity against Escherichia coli at 10 ug/disk by agar diffusion assay.

For the compound `Oc1ccc2[nH]c3c([C@@H](O)Cc4ccccc4)nccc3c2c1` [EUDISTOMIN W], the zone of inhibition at 10 µg/disc with Candida albicans [1] stood at 13 mm.
Regarding `CN(C)C(Cc1ccccc1)c1nccc2c1[nH]c1ccc(O)cc12` (centres undefined) [EUDISTOMIN X], the zone of inhibition at 10 µg/disc in the assay on Bacillus subtilis [2] was 18 mm; in the assay with Candida albicans [1], 18 mm; in the assay with Staphylococcus aureus [5] it was 12 mm; with Escherichia coli [8], 20 mm. Moreover, the zone of inhibition at 5 µg/disc in the assay on Staphylococcus aureus [3] was determined as 11 mm; in the assay with Escherichia coli [4], 15 mm; in the assay with Bacillus subtilis [6], 17 mm; in the assay with Candida albicans [7], 17 mm.
